Laboratory results reported in patent US8431579B2, “Capped pyrazinoylguanidine sodium channel blockers” (Parion Sciences, Inc., priority 2003, dated 2013).
One block for each compound: values may come before it.

What was measured:
[1] = target: T1, airway epithelial sodium currents (epithelial Na+ channel, ENaC) (Canis lupus familiaris, UniProt A0A8I3MKE6+A0A8I3Q679+Q95165); experiment: In vitro measure of sodium channel blocking activity (short circuit current, airway epithelial monolayers in Ussing chambers); type: cell-based, human, dog, sheep or rodent; conditions: lumenal drug inhibition of ISC in airway epithelial monolayers, value ± spread, n in same cell
T1 sequence (A0A8I3Q679 1-649): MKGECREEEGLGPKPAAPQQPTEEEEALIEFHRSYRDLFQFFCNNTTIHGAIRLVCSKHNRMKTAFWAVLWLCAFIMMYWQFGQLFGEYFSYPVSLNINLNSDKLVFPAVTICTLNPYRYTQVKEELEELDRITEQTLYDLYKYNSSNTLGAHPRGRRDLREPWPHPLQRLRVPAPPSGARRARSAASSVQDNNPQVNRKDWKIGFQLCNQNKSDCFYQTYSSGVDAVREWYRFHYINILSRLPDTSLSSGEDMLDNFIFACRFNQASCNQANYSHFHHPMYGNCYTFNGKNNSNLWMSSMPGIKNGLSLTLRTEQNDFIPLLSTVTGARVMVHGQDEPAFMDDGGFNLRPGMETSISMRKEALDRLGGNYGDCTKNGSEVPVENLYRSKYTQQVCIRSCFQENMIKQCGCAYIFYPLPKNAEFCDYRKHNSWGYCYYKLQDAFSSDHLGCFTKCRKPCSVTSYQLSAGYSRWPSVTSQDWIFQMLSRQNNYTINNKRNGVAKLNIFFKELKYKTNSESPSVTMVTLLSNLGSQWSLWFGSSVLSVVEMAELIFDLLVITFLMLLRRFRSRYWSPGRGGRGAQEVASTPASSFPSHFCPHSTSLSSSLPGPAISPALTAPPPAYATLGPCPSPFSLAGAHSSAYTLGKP
T1 sequence (Q95165 1-641): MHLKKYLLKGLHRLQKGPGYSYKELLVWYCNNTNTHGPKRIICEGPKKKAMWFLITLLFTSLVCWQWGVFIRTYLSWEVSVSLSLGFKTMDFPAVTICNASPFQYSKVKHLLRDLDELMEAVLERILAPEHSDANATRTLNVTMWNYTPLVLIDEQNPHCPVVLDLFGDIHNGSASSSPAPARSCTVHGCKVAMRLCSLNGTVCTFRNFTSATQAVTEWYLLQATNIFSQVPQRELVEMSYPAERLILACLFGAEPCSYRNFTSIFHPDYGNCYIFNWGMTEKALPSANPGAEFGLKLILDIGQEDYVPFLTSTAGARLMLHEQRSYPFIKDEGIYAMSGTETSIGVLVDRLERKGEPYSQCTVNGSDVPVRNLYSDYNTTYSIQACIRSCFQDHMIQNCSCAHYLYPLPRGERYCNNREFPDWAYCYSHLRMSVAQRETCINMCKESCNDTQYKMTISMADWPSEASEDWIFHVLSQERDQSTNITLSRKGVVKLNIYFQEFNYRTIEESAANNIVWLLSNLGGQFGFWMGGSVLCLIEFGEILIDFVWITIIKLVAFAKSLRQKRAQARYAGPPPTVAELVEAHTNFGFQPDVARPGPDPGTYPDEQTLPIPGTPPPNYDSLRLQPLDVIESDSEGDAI
T1 sequence (A0A8I3MKE6 1-646): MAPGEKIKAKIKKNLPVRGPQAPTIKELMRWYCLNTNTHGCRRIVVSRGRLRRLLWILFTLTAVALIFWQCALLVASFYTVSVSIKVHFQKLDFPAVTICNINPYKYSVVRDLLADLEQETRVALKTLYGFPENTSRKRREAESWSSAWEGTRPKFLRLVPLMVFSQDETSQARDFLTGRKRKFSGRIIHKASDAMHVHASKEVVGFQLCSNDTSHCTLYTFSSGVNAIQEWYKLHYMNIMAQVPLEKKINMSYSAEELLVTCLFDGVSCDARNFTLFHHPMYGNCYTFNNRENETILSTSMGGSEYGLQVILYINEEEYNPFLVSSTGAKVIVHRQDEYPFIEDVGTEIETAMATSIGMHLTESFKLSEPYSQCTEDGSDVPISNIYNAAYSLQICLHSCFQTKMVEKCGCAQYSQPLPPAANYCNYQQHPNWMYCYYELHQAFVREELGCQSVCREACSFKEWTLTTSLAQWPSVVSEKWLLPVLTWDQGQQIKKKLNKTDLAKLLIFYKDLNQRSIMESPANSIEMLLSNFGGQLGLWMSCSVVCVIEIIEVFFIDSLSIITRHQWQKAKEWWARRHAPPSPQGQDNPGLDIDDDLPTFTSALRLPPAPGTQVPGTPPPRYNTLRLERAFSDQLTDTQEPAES
Procedure: In Vitro Measure of Sodium Channel Blocking Activity and Reversibility
One assay used to assess mechanism of action and/or potency of the compounds of the present invention involves the determination of lumenal drug inhibition of airway epithelial sodium currents measured under short circuit current (ISC) using airway epithelial monolayers mounted in Ussing chambers. Cells obtained from freshly excised human, dog, sheep or rodent airways are seeded onto porous 0.4 micron Snapwell™ Inserts (CoStar), cultured at air-liquid interface (ALI) conditions in hormonally defined media, and assayed for sodium transport activity (ISC) while bathed in Krebs Bicarbonate Ringer (KBR) in Using chambers. All test drug additions are to the lumenal bath with half-log dose addition protocols (from 1×10^−11 M to 3×10^−5M), and the cumulative change in ISC (inhibition) recorded. All drugs are prepared in dimethyl sulfoxide as stock solutions at a concentration of 1×10^−2 M and stored at −20° C. Eight preparations are typically run in parallel; two preparations per run incorporate amiloride and/or benzamil as positive controls. After the maximal concentration (5×10^−5 M) is administered, the lumenal bath is exchanged three times with fresh drug-free KBR solution, and the resultant ISC measured after each wash for approximately 5 minutes in duration. Reversibility is defined as the percent return to the baseline value for sodium current after the third wash. All data from the voltage clamps are collected via a computer interface and analyzed off-line.
Dose-effect relationships for all compounds are considered and analyzed by the Prism 3.0 program. IC50 values, maximal effective concentrations, and reversibility are calculated and compared to amiloride and benzamil as positive controls.

SMILES: N=C(NCCCCc1ccc(OCC(=O)NCC(N)=O)cc1)NC(=O)c1nc(Cl)c(N)nc1N [compound 16314]
EC50 [1]: 13 ± 2 nM

SMILES: N#CCOc1ccc(CCCCNC(=N)NC(=O)c2nc(Cl)c(N)nc2N)cc1 [compound 16208]
EC50 [1]: 11 ± 4 nM

SMILES: N=C(NCCCCc1ccc(OCC(=O)Nc2ncc[nH]2)cc1)NC(=O)c1nc(Cl)c(N)nc1N [compound 16437]
EC50 [1]: 13 ± 7 nM

SMILES: N=C(NCCCCc1ccc(OCCCc2nnn[nH]2)cc1)NC(=O)c1nc(Cl)c(N)nc1N [compound 17926]
EC50 [1]: 25 ± 9 nM

SMILES: CN(C)C(=S)Oc1ccc(CCCCNC(=N)NC(=O)c2nc(Cl)c(N)nc2N)cc1 [compound 17846]
EC50 [1]: 11 ± 6 nM

SMILES: CN(C)C(=O)COc1ccc(CCCCNC(=N)NC(=O)c2nc(Cl)c(N)nc2N)cc1 [compound 16313]
EC50 [1]: 15 ± 4 nM

SMILES: N=C(NCCCCc1ccc(OCC(O)COCC(O)CO)cc1)NC(=O)c1nc(Cl)c(N)nc1N (centres unmarked) [compound 15143]
EC50 [1]: 7 ± 3 nM

melting point: 114 to 121.16 °C
SMILES: N=C(NCCCCc1ccc(OCC(=O)N(CCO)CCO)cc1)NC(=O)c1nc(Cl)c(N)nc1N

SMILES: N=C(NCCCCc1ccc(OCC(=O)Nc2ccccc2)cc1)NC(=O)c1nc(Cl)c(N)nc1N [compound 17482]
EC50 [1]: 16 ± 4 nM

SMILES: N=C(NCCCCc1ccc(OCCCc2ncc[nH]2)cc1)NC(=O)c1nc(Cl)c(N)nc1N [compound 23022]
EC50 [1]: 12 ± 3 nM

SMILES: CC(C)[C@H](NS(=O)(=O)c1ccc(CCCCNC(=N)NC(=O)c2nc(Cl)c(N)nc2N)cc1)C(N)=O [compound 19008]
EC50 [1]: 9 ± 1 nM
